# Laboratory results published in US6203835A, “Use of hydroxy acid or a product containing the same in animal feed” (Oy Extracta Ltd., priority 1995, dated 2001).
# Structures can show the parent of a compound that is named as a salt.
# Assays:
# physchem = details: for pH of maximum buffer capacity: mixture of the acid and a salt of said acid with a strong base
# Text: (§1) The acting mechanism of alpha-hydroxy acids on microbes is unclear. It is plausible that these acids act as antimetabolites of the corresponding alpha-amino acids. […] After their resorption into the organism, these acids are metabolized through the same paths as the corresponding alpha-amino acids.
# micro-organisms = experiment: Antimicrobial effect of hydroxy acids on micro-organisms in vitro
# in vivo = details: mouse
# Text: as §1
# Salmonella infantis = experiment: Effect of hydroxy acids on growth of Salmonella infantis in vitro (turbidity 600 nm); type: cell-based; details: MRS medium, 37° C., 20 hours; 0.03, 0.1 and 0.3% tested
# Protocol: In this example, an investigation was carried out into the sensitivity of Salmonella infantis bacterium representing the genus Salmonella to two hydroxy acids: L-2-hydroxy-3-methyl butyric acid (HMB) and L-2-hydroxy-4-methyl valeric acid (HMV). The acids were added to the MRS growth medium of the bacterium so that resulting concentrations were controlled to 0.03, 0.1 and 0.3%. The organism growth was followed at 37° C. for 20 hours by measuring the turbidity of the culture at 600 nm wavelength.
# [1] = test system: coliform bacterium strain (104); experiment: Effect of hydroxy acids on growth of coliform strain in vitro (turbidity 600 nm); type: cell-based; details: MRS medium, 37° C.; 0.03, 0.1 and 0.3% tested
# Protocol: (§2) In the example, the sensitivity of microbes isolated from the small intestine of broiler chickens to hydroxy acids were measured under laboratory conditions. For the test, a representative test organism species from each of the bacterium groups mentioned above was chosen. Of the hydroxy acids, HMB (2-hydroxy-3-methyl butric acid) and HMV (2-hydroxy-4-methyl valeric acid) were separately tested using their a mixture of their L- and D-forms as well as the pure L-form. The acids were added to the MRS growth medium of the bacterium so that resulting concentrations were controlled to 0.03, 0.1 and 0.3%. The organism growth was followed at 37° C. by measuring the turbidity of the culture at 600 nm wavelength.
# [2] = test system: Enterococcus strain (111); experiment: Effect of hydroxy acids on growth of Enterococcus strain in vitro (turbidity 600 nm); type: cell-based; details: MRS medium, 37° C.; 0.03, 0.1 and 0.3% tested
# Protocol: as §2
# leucine amino peptidase = details: cited from earlier work
structure (smiles),measurement,setting,value
"CC(C)C(O)C(=O)O (racemic) [d,l-2-hydroxy-3-methyl butyric acid]",pKa,physchem,3.8
same,pH of maximum buffer capacity,physchem,3.8 pH
same,number of different micro-organisms on which an antimicrobial effect was shown,micro-organisms,about seventy
"CC(C)C(O)C(=O)O (racemic) [Na-salt of d,l-2-hydroxy-3-methyl]",LD50,in vivo; iv,1080 mg/kg
"CC(C)C[C@H](O)C(=O)O [HMV, L-2-hydroxy-4-methyl valeric acid]",hydroxy acid concentration clearly inhibiting growth,Salmonella infantis,0.1%
same,hydroxy acid concentration effectively inhibiting growth,[1],0.1%
same,growth-inhibiting effect,[2],clear growth-inhibiting effect
"CC(C)[C@H](O)C(=O)O [HMB, L-2-hydroxy-3-methyl butyric acid]",hydroxy acid concentration clearly inhibiting growth,Salmonella infantis,0.1%
same,hydroxy acid concentration effectively inhibiting growth,[1],0.1%
same,growth-inhibiting effect,[2],clear growth-inhibiting effect
"CC(C)CC(O)C(=O)O (racemic) [d,l-2-hydroxy-4-methyl valeric acid]",pKa,physchem,3.8
same,pH of maximum buffer capacity,physchem,3.8 pH
same,number of different micro-organisms on which an antimicrobial effect was shown,micro-organisms,about seventy
CC(C)CC(O)C(=O)O (stereo not drawn) [2-hydroxy-4-methyl valeric acid],inhibition of leucine amino peptidase,leucine amino peptidase,competitive inhibitor
"CC(C)CC(O)C(=O)O (racemic) [Na-salt of d,l-2-hydroxy-4-methyl]",LD50,in vivo; in vivo,650 mg/kg
